From the supplement of paper PMC11208160

Assay: recombinant barcode read abundance after kanamycin selection (control-corrected) (log10(CPM+1)); higher = more efficient recombination; sequences stand for … in AGTGCAGAGAAAATCGGCCAGTTTTCTCTGCCTGCAGTCCGCATGCCGT…AGATTTATGCAGCGGACTGCCTTTCTCCCAAAGTGATAAACCGGACAGTATCATGGACCGGTTTTCCCGGTAATCCGTATTTGCAAGGTTGGTTTCACT; site = the 11-nt target
Outline: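 This pooled E. coli screen matched targets with IS621 bridge RNA target-binding loops. Plating was done in duplicate on chloramphenicol/ampicillin LB agar as a control and on chloramphenicol/ampicillin/kanamycin plus 0.1 mM IPTG. Recombination efficiency reflects barcode counts at recombinant junctions as counts per million, averaged and control-corrected. The figures are log10(CPM+1).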
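Also: IS621 recombinase and bridge RNA in Escherichia coli cells.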

Sequence	recombinant barcode read abundance (log10)
TAGAATCCTTGGGTTCTAACCTGTTGCAA (site TAGAATCCTAT)	0.15
TAGAATCCTTGGGTTCTAACCTGTTGCAA (site TAGAATCCTCT)	0.123
TAGAATCCTTGGGTTCTAACCTGTTGCAA (site TAGAATCCTGT)	0.116
TAGAATCCTTGGGTTCTAACCTGTTGCAA (site TAGAATCCTTT)	0.147
TAGACGGCTTGGGTTCTAACCTGTTGCAT (site GGATACACTCG)	0.191
TAGACGGCTTGGGTTCTAACCTGTTGCAT (site TAGACGGCTAT)	0.463
TAGAGAGCTTGGGTTCTAACCTGTTGCAG (site TAGAGAGCTCT)	1.94
TAGAGAGCTTGGGTTCTAACCTGTTGCAG (site TAGGGAGCTAT)	0.265
TAGAGCCCTTGGGTTCTAACCTGTTGCGG (site TAGAGCCCTCC)	0.953
TAGAGCCCTTGGGTTCTAACCTGTTGCGG (site TCGAGGCCTCC)	0.0902
TAGATCCCTTGGGTTCTAACCTGTTGCTT (site TAGAACCCTAA)	0.245
TAGATCCCTTGGGTTCTAACCTGTTGCTT (site TAGATCCCTAA)	0.528
TAGCACCCTTGGGTTCTAACCTGTTGCCG (site TAGCACCCTAG)	0.287
TAGCACCCTTGGGTTCTAACCTGTTGCCG (site TAGCACCCTCG)	1.19
TAGCACCCTTGGGTTCTAACCTGTTGCCG (site TAGCACCCTGG)	0.239
TAGCACCCTTGGGTTCTAACCTGTTGCCG (site TAGCACCCTTG)	0.356
TAGCAGTCTTGGGTTCTAACCTGTTGCGC (site CGCGCCACTAG)	0.251
TAGCAGTCTTGGGTTCTAACCTGTTGCGC (site TAGCAGTCTGC)	2.05
TAGCATGCTTGGGTTCTAACCTGTTGCAA (site TAGCATGCTAT)	0.382
TAGCATGCTTGGGTTCTAACCTGTTGCAA (site TAGCATGCTCT)	0.597
TAGCATGCTTGGGTTCTAACCTGTTGCAA (site TAGCATGCTGT)	0.115
TAGCATGCTTGGGTTCTAACCTGTTGCAA (site TAGCATGCTTT)	0.324
TAGCATGCTTGGGTTCTAACCTGTTGCAC (site TAGCATGCTAT)	0.677
TAGCATGCTTGGGTTCTAACCTGTTGCAC (site TAGCATGCTCT)	0.203
TAGCATGCTTGGGTTCTAACCTGTTGCAC (site TAGCATGCTGT)	0.978
TAGCATGCTTGGGTTCTAACCTGTTGCAC (site TAGCATGCTTT)	0.306

Sequence	recombinant barcode read abundance (log10)
TAGCCTTCTTGGGTTCTAACCTGTTGCTA (site TAGCCTTCTCA)	0.0251
TAGCCTTCTTGGGTTCTAACCTGTTGCTA (site TAGCCTTCTTA)	0.129
TAGCGGCCTTGGGTTCTAACCTGTTGCGG (site CCAGTATCTAT)	0.453
TAGCGGCCTTGGGTTCTAACCTGTTGCGG (site TAGCGGCCTCC)	2.23
TAGGAAACTTGGGTTCTAACCTGTTGCGT (site TAGGAAACTAC)	2.98
TAGGAAACTTGGGTTCTAACCTGTTGCGT (site TAGGACACTAC)	0.0791
TAGGAAACTTGGGTTCTAACCTGTTGCGT (site TAGGAGACTAC)	0.781
TAGGAAACTTGGGTTCTAACCTGTTGCGT (site TAGGATACTAC)	0.447
TAGGCGACTTGGGTTCTAACCTGTTGCTA (site TAGGCGACTTA)	0.454
TAGGCGACTTGGGTTCTAACCTGTTGCTA (site TAGGGCACTTA)	0.156
TAGGCGACTTGGGTTCTAACCTGTTGCTT (site TAGACGACTAA)	0.177
TAGGCGACTTGGGTTCTAACCTGTTGCTT (site TAGCCGACTAA)	0.182
TAGGCGACTTGGGTTCTAACCTGTTGCTT (site TAGGCGACTAA)	0.395
TAGGCGACTTGGGTTCTAACCTGTTGCTT (site TAGTCGACTAA)	0
TAGGCGTCTTGGGTTCTAACCTGTTGCAG (site TAGCCTTCTCT)	0.0835
TAGGCGTCTTGGGTTCTAACCTGTTGCAG (site TAGGCGTCTCT)	2.27
TAGGCTCCTTGGGTTCTAACCTGTTGCAC (site TAGGCTCCTAT)	0.2
TAGGCTCCTTGGGTTCTAACCTGTTGCAC (site TAGGCTCCTCT)	0.0904
TAGGCTCCTTGGGTTCTAACCTGTTGCAC (site TAGGCTCCTGT)	1.94
TAGGCTCCTTGGGTTCTAACCTGTTGCAC (site TAGGCTCCTTT)	0.726
TAGGCTCCTTGGGTTCTAACCTGTTGCTT (site TACGGTCCTAA)	0.0632
TAGGCTCCTTGGGTTCTAACCTGTTGCTT (site TAGGCTCCTAA)	0.277
TAGGCTGCTTGGGTTCTAACCTGTTGCAT (site TAGGCTGCTAT)	0.882
TAGGCTGCTTGGGTTCTAACCTGTTGCAT (site TTGGGTGCTAT)	0.0414
TAGGGCACTTGGGTTCTAACCTGTTGCTA (site TAGGCGACTTA)	0.875
TAGGGCACTTGGGTTCTAACCTGTTGCTA (site TAGGGCACTTA)	1.44

Sequence	recombinant barcode read abundance (log10)
TAGGGTCCTTGGGTTCTAACCTGTTGCGG (site TAAGGTCCTCT)	1.35
TAGGGTCCTTGGGTTCTAACCTGTTGCGG (site TAGGGTCCTCC)	2.88
TAGGGTTCTTGGGTTCTAACCTGTTGCGG (site CAGGGTCCTCC)	0.0906
TAGGGTTCTTGGGTTCTAACCTGTTGCGG (site TAGGGTTCTCC)	3.01
TAGGTCACTTGGGTTCTAACCTGTTGCAT (site TAGATCACTAT)	0.337
TAGGTCACTTGGGTTCTAACCTGTTGCAT (site TAGCTCACTAT)	0.0353
TAGGTCACTTGGGTTCTAACCTGTTGCAT (site TAGGTCACTAT)	2.43
TAGGTCACTTGGGTTCTAACCTGTTGCAT (site TAGTTCACTAT)	0.0621
TAGTAACCTTGGGTTCTAACCTGTTGCTT (site TAGTAACCTAA)	0.683
TAGTAACCTTGGGTTCTAACCTGTTGCTT (site TAGTACCCTCA)	0.0923
TAGTACTCTTGGGTTCTAACCTGTTGCTC (site TAGTACTCTAA)	0.096
TAGTACTCTTGGGTTCTAACCTGTTGCTC (site TAGTACTCTCA)	0.429
TAGTACTCTTGGGTTCTAACCTGTTGCTC (site TAGTACTCTGA)	1.52
TAGTACTCTTGGGTTCTAACCTGTTGCTC (site TAGTACTCTTA)	0.124
TAGTATACTTGGGTTCTAACCTGTTGCTG (site TAGTATACTCA)	1.16
TAGTATACTTGGGTTCTAACCTGTTGCTG (site TCGTATACTCC)	0.0803
TAGTATCCTTGGGTTCTAACCTGTTGCCT (site TAGTAAGCTAG)	0.433
TAGTATCCTTGGGTTCTAACCTGTTGCCT (site TAGTATCCTAG)	1.04
TAGTATGCTTGGGTTCTAACCTGTTGCTA (site TAGTATCCTTA)	0.0173
TAGTATGCTTGGGTTCTAACCTGTTGCTA (site TAGTATGCTTA)	1.39
TAGTCAACTTGGGTTCTAACCTGTTGCGT (site TAGTCAACTAC)	0.593
TAGTCAACTTGGGTTCTAACCTGTTGCGT (site TGGCCAACTAC)	0.0928
TAGTCAGCTTGGGTTCTAACCTGTTGCAC (site TAGTCAGCTGT)	1.2
TAGTCAGCTTGGGTTCTAACCTGTTGCAC (site TGGTCGGCTGT)	0.00985
TAGTCCTCTTGGGTTCTAACCTGTTGCTA (site TAGTCCTCTAA)	0.0289
